Measured values reported in ChEMBL document CHEMBL1201862, “PubChem BioAssay data set” (2004).
The source made the active and inactive calls.

Legend:
[1] = target: Voltage-dependent T-type calcium channel subunit alpha-1H (Homo sapiens, UniProt O95180); type: functional;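 further: channel activity triggered by adding a high calcium stimulation buffer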
Aminopeptidase N = target: T1, Aminopeptidase N (Plasmodium falciparum FcB1/Columbia, UniProt O96935); experiment: malaria alanyl aminopeptidase activity blockers – biochemical, fluorogenic H-Leu-NHMec substrate, 1536-well (AID 1445); design: species or system Plasmodium falciparum 3D7, 3D7
T1 sequence (O96935 whole entry): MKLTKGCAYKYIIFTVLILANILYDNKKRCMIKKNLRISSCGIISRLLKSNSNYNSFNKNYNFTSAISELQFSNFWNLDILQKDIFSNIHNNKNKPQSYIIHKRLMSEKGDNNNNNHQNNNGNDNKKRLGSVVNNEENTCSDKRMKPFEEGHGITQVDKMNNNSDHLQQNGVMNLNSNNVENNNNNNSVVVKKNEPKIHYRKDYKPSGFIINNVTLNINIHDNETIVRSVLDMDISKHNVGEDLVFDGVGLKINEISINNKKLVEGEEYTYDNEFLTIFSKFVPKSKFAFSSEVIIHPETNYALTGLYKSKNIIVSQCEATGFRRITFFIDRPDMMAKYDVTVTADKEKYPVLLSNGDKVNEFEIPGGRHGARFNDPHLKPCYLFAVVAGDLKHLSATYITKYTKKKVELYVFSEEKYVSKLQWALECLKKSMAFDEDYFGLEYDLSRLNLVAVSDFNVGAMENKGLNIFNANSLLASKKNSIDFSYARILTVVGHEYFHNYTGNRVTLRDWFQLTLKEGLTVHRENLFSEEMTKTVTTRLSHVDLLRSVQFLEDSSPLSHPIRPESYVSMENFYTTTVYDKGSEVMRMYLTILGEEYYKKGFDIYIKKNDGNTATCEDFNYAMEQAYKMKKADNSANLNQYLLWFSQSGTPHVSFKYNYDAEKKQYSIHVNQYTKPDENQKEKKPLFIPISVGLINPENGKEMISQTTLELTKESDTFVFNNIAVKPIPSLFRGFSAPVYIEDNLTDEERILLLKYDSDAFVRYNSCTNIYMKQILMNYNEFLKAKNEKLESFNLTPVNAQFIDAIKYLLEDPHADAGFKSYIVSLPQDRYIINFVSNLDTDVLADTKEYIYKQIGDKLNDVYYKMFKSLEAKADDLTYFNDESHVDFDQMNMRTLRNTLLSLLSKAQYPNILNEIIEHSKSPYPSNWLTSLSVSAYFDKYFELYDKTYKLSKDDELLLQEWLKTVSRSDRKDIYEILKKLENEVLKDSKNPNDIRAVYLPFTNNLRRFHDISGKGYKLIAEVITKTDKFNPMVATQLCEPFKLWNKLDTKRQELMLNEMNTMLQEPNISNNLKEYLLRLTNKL

[2] = target: Transitional endoplasmic reticulum ATPase (Homo sapiens, UniProt P55072); experiment: p97 ATPase inhibitors, dose response, biochemical (AID 1534)
Chain of Transitional endoplasmic reticulum ATPase (Homo sapiens, UniProt P55072) (P55072 whole entry): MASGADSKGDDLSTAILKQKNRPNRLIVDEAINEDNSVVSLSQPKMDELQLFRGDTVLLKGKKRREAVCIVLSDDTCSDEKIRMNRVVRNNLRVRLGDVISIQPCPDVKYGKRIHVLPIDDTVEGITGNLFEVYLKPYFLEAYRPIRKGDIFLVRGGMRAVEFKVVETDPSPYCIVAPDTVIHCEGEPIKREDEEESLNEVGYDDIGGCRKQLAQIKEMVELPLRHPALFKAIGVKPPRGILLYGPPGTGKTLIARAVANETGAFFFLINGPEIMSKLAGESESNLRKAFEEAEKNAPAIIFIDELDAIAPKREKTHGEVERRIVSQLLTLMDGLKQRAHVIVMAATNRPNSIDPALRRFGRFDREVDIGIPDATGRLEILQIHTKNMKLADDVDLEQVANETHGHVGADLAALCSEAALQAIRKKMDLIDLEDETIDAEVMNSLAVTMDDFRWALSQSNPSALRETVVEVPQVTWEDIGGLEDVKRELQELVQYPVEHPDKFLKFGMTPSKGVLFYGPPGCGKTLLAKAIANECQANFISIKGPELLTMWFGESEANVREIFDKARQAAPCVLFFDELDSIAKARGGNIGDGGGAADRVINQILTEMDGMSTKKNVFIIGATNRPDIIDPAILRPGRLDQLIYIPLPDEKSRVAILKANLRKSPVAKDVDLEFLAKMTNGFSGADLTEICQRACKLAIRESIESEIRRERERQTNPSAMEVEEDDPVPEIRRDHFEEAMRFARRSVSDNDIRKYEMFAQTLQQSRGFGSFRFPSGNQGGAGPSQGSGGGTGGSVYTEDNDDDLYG

[3] = target: Transitional endoplasmic reticulum ATPase (Homo sapiens, UniProt P55072, C522A); experiment: C522A mutant p97 ATPase inhibitors, dose response, counter-screen for p97 inhibitor project, biochemical, luminescence (AID 1544)
Chain of Transitional endoplasmic reticulum ATPase (Homo sapiens, UniProt P55072, C522A) (P55072 2-806 C522A limits assumed): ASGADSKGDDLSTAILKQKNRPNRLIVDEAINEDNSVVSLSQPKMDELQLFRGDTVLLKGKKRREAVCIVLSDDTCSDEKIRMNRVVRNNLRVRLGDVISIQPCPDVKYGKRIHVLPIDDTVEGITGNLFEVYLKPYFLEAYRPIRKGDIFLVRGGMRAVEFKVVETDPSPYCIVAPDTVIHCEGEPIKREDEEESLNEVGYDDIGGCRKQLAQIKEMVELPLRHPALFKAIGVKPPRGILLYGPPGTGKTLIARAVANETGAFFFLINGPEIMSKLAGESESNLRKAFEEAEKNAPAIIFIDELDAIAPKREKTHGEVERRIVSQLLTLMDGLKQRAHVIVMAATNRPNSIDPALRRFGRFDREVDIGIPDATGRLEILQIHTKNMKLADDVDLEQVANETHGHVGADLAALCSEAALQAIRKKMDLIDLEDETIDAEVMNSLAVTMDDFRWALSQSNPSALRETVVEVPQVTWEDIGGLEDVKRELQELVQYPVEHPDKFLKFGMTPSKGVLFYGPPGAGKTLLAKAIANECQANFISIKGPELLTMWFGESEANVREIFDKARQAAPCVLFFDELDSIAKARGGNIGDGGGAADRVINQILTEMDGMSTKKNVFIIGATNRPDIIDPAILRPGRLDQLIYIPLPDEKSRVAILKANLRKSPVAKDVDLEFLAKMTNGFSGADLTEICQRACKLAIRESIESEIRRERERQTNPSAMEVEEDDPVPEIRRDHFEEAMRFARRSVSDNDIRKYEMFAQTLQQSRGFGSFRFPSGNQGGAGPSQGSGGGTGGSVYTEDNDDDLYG

[4] = target: T2, Bifunctional protein GlmU (Mycobacterium tuberculosis, UniProt P9WMN3); experiment: Inhibitors of Mycobacterial Glucosamine-1-phosphate acetyl transferase (GlmU). Secondary screen.; design: species or system Mycobacterium tuberculosis H37Rv
T2 sequence (P9WMN3 whole entry): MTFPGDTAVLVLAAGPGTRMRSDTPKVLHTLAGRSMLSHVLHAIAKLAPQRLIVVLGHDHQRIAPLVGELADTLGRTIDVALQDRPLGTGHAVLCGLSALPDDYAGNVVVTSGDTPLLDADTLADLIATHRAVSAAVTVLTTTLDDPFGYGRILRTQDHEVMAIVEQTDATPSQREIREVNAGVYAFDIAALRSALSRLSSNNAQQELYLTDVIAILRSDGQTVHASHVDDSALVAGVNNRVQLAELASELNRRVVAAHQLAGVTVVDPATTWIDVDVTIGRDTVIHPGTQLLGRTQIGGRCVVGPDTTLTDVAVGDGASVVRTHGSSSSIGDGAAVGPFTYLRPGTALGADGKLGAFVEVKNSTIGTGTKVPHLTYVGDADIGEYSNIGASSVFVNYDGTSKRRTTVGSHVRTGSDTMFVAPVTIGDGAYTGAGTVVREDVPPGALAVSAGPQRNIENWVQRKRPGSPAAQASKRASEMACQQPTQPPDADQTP

[5] = target: Induced myeloid leukemia cell differentiation protein Mcl-1 (Homo sapiens, UniProt Q07820); type: functional
Prothrombin = Prothrombin (Bos taurus, UniProt P00735); experiment: thrombin protease inhibitors – biochemical, fluorescence polarization, uHTS hits, dose response (AID 602369); type: functional
[6] = target: 26S proteasome non-ATPase regulatory subunit 14 (Homo sapiens, UniProt O00487); experiment: inhibition of proteasome subunit RPN11 – biochemical, fluorescence polarization, uHTS hits, confirmation (AID 602368); type: functional
Chain of 26S proteasome non-ATPase regulatory subunit 14 (O00487 whole entry, the tested form may be a part): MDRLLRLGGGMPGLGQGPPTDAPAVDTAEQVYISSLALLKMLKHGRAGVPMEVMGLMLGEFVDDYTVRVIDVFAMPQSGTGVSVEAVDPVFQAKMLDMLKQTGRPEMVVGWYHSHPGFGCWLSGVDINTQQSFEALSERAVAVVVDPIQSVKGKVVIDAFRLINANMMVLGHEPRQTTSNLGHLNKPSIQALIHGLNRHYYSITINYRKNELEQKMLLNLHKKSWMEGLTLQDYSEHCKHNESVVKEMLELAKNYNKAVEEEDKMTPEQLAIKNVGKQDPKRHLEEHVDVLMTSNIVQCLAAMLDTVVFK

[7] = target: T3, RNA-binding protein pos-1 (Caenorhabditis elegans, UniProt G5EF15); experiment: disruptors of C. elegans POS-1 RNA interaction – biochemical, fluorescence polarization, dose response (AID 1964);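 further: purified POS-1 fused to maltose binding protein made in E. coli; potency of compounds blocking POS-1 binding to fluorescent RNA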
T3 sequence (G5EF15 whole entry): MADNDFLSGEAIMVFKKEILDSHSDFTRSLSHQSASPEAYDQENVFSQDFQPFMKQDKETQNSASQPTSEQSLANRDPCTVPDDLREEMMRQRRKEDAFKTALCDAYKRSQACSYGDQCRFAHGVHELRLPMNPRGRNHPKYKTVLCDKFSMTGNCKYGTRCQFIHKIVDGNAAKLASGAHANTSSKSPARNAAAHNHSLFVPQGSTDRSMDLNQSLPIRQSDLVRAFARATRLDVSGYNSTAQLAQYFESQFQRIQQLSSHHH

[8] = target: T4, Small ubiquitin-related modifier 1 (Homo sapiens, UniProt P63165); experiment: SUMO1 protein-protein binding blockers, potency – biochemical, FRET, dose response (AID 624383); type: functional; settings: read-out: IC50_Mean
T4 sequence (P63165 whole entry): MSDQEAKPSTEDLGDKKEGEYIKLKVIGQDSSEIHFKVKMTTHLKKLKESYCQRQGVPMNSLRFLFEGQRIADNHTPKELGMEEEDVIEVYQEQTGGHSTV

[9] = target: 72 kDa type IV collagenase (Homo sapiens, UniProt P08253); experiment: Dose Response validation of uHTS RPN11 inhibitor hits using a MMP-2 Fluorescence assay.; type: functional
Albumin = Albumin (Bos taurus, UniProt P02769); experiment: Counterscreen for inhibitors of T-cell receptor (TCR)-CD3 interaction: Fluorescence-based biochemical high throughput dose response assay to identify inhibitors of T-cell receptor (TCR)-CD3 interaction using a TAMRA-labeled BSA probe.; type: functional
Chain of Albumin (P02769 whole entry): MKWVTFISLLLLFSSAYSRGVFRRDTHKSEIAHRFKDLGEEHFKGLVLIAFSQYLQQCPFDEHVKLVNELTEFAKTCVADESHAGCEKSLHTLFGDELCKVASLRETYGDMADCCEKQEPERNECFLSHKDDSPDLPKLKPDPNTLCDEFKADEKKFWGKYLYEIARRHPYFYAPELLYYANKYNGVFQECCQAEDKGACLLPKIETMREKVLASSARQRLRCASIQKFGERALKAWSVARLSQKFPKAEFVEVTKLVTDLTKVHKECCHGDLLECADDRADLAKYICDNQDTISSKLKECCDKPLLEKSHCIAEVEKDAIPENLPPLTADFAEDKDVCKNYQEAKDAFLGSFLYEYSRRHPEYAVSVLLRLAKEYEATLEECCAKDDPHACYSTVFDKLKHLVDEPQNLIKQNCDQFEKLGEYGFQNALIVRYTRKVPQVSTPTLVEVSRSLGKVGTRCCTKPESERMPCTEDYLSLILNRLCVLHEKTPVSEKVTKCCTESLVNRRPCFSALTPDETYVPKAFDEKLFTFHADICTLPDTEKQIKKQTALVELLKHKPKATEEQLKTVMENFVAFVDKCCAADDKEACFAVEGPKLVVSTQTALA

[10] = target: T4, Small ubiquitin-related modifier 1; experiment: SUMO1 protein interaction blockers, potency – biochemical, fluorescence polarization, uHTS hits, dose response (AID 624382); type: functional; settings: read-out: IC50_Mean
[11] = target: T5, RNA-editing ligase 1, mitochondrial (Trypanosoma brucei brucei, UniProt P86926); experiment: inhibition of trypanosome RNA editing ligase – biochemical, fluorescence, Trypanosoma brucei, dose response (AID 1117295); type: functional
T5 sequence (P86926 whole entry): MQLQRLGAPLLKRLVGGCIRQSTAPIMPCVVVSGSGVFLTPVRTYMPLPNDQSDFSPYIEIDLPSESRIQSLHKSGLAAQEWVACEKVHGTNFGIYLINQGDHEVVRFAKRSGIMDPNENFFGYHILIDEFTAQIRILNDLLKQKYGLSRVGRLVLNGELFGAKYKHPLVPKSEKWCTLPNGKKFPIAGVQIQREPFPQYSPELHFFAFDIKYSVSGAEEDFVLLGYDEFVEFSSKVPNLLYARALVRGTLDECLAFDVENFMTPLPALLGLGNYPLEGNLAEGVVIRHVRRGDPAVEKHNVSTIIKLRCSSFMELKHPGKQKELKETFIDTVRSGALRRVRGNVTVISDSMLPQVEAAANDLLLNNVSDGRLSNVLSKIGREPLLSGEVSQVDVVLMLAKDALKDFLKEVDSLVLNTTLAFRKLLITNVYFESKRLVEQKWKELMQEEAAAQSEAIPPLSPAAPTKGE

[12] = target: T6, Zinc finger protein mex-5 (Caenorhabditis elegans, UniProt Q9XUB2); experiment: potency of MEX-5 RNA-binding blockers – biochemical, C. elegans, fluorescence polarization, dose response (AID 1960)
T6 sequence (Q9XUB2 whole entry): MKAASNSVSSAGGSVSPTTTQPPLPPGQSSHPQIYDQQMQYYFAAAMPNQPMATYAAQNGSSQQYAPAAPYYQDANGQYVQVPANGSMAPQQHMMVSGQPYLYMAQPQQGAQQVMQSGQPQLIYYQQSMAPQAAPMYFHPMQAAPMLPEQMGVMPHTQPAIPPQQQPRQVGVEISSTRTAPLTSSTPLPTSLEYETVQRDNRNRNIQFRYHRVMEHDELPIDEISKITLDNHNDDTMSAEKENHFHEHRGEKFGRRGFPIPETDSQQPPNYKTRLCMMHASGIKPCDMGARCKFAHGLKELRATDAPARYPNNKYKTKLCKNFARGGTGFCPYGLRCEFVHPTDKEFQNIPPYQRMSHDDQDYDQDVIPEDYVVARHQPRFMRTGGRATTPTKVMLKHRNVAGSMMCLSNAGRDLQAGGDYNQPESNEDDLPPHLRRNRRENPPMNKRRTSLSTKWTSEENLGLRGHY

[13] = blockers of CRF-binding protein–CRF-R2 complex – cell-based, uHTS hits, 384-well, dose response (AID 651639); type: functional, Homo sapiens; settings: read-out: IC50_Mean
[14] = target: T7, Long-chain-fatty-acid--AMP ligase FadD28 (Mycobacterium tuberculosis, UniProt P9WQ59); experiment: Fluorescence polarization aasay to screen for inhibitors that compete for the binding of FadD28 to a bisubstrate Measured in Biochemical System Using Plate Reader - 2147-01_Inhibitor_Dose_CherryPick_Activity.; type: functional, Mycobacterium tuberculosis H37Rv
T7 sequence (P9WQ59 whole entry): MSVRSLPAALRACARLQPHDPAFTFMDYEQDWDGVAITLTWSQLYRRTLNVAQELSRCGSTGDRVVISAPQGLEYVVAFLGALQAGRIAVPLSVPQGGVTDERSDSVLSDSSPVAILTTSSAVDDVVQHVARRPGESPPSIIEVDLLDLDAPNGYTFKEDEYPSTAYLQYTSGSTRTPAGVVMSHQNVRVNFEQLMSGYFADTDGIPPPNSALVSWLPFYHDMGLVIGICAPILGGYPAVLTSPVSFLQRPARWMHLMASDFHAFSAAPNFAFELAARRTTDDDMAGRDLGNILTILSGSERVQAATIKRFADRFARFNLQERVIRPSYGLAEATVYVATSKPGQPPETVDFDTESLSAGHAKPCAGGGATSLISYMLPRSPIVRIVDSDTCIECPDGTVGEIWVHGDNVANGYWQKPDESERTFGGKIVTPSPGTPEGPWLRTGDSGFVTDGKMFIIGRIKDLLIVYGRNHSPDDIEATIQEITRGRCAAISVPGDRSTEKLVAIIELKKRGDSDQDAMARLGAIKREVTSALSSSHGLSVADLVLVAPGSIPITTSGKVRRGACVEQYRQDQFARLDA

[15] = target: T8, Corticotropin-releasing factor receptor 2/Corticotropin-releasing factor-binding protein (Homo sapiens, UniProt P24387+Q13324); experiment: Dose Response confirmation of uHTS hits for small molecule antagonists of the CRF-binding protein and CRF-R2 receptor complex.; type: functional; settings: read-out: IC50_Mean
T8 sequence (Q13324 whole entry): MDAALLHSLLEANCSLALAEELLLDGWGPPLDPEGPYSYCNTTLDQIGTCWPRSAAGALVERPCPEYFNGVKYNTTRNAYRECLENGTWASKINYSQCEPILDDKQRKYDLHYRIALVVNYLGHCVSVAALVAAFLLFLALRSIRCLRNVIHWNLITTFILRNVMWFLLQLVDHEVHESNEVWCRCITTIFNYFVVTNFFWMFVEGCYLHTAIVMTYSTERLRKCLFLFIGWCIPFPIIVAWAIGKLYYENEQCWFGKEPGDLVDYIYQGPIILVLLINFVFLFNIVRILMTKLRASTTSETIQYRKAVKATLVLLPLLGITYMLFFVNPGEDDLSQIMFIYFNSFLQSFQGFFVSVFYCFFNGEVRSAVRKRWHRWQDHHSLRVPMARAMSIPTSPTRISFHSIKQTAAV
T8 sequence (P24387 whole entry): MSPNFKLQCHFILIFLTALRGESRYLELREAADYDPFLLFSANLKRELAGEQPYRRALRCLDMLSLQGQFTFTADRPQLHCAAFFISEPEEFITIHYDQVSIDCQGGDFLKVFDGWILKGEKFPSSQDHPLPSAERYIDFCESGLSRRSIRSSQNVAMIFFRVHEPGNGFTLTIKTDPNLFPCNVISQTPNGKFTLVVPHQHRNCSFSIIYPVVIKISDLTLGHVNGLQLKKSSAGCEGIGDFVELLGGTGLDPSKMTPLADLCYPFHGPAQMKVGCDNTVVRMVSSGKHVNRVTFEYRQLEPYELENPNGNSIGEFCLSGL

[16] = target: T8, Corticotropin-releasing factor receptor 2/Corticotropin-releasing factor-binding protein; experiment: activators of CRF receptor 2 with binding protein – uHTS hits, confirmation (AID 602473); type: functional; settings: read-out: EC50_Mean
Cytochrome P450 2C9 = Cytochrome P450 2C9 (Homo sapiens, UniProt P11712); settings: Potency

Chain of Voltage-dependent T-type calcium channel subunit alpha-1H (O95180 whole entry): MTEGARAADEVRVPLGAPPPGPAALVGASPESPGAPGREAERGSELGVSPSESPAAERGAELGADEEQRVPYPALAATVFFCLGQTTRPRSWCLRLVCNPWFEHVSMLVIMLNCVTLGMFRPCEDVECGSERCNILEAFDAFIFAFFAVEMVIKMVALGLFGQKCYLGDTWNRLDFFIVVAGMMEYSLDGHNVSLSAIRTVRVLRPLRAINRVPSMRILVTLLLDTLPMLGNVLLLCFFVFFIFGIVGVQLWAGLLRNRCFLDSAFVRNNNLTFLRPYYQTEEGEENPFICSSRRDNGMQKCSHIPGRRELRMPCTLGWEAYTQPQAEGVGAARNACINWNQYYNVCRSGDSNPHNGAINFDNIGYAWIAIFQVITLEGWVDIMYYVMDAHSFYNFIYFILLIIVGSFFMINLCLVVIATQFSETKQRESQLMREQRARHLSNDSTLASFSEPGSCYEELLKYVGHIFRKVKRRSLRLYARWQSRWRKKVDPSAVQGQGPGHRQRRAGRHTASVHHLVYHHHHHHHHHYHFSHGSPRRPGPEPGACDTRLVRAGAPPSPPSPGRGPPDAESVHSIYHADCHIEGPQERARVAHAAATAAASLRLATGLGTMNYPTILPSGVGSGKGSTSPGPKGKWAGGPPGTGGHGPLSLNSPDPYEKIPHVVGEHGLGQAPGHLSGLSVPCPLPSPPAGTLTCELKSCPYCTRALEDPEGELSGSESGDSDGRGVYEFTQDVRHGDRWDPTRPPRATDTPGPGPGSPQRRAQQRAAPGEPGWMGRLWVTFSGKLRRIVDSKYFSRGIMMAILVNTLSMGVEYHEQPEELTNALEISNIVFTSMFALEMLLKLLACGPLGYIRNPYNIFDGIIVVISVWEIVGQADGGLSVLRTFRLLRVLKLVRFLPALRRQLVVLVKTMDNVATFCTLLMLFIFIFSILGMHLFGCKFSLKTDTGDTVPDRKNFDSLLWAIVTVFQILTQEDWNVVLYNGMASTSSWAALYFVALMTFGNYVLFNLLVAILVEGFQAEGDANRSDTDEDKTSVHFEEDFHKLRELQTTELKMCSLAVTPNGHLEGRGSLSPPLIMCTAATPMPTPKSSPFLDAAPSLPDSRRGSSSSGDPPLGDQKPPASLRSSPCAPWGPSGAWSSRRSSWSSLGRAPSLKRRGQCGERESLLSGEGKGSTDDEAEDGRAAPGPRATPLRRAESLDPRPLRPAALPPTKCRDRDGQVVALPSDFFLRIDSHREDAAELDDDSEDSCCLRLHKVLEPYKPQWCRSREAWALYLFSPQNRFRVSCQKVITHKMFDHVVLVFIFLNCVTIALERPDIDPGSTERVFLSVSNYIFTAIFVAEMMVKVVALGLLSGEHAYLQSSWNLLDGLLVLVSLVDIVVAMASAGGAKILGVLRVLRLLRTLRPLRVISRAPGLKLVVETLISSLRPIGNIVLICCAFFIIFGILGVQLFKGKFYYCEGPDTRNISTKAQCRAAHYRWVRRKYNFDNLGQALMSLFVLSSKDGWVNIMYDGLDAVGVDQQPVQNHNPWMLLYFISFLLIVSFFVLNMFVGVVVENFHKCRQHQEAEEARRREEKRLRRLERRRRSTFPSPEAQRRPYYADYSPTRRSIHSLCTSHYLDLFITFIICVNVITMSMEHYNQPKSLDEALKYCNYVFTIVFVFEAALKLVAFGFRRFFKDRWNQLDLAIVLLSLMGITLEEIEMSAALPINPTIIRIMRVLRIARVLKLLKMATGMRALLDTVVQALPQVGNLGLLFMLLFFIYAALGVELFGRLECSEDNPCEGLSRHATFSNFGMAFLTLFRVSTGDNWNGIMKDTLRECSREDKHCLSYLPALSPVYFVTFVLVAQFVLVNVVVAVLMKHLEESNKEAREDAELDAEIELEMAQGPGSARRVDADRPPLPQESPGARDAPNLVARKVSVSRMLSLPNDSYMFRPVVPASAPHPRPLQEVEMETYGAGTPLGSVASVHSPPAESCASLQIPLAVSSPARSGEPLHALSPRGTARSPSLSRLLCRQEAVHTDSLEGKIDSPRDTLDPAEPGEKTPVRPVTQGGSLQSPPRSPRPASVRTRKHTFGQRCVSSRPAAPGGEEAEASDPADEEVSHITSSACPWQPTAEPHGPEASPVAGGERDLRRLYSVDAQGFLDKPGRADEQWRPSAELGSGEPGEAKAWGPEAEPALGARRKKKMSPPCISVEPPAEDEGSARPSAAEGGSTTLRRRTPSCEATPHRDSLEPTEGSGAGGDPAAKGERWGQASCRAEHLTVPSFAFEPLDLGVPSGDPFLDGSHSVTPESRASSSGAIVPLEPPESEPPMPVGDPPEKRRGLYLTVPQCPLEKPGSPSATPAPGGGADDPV

## CCCOc1cc(C)c(S(=O)(=O)n2ccc(C)n2)cc1C
[1]
  EC50: 5.47 µM (active)

## Cc1n[nH]c(S/C(=C\c2ccc(-c3ccc(C(=O)O)c(Cl)c3)o2)C(=O)O)n1
Aminopeptidase N
  IC50: 11.3 µM (active)
[2]
  IC50: > 50 µM (not active)
[3]
  IC50: > 50 µM (not active)
[4]
  IC50: 61.9 µM (active)
[5]
  IC50: 2.35 µM (active)
Prothrombin
  IC50: 9.79 µM (active)
[6]
  IC50: 9.04 µM (active)
[7]
  EC50: 1.76 µM (active)
[8]
  IC50: 13.1 µM (active)
[9]
  IC50: > 100 µM (inactive)
Albumin
  IC50: > 94.1 µM (inactive)
[10]
  IC50: > 66.6 µM (inactive)
[11]
  IC50: 22.9 µM (inactive)
[12]
  EC50: 1.38 µM (active)

## Cc1[nH]c2ccccc2c1/C=C1/C(=N)N2C(=NC1=O)SN=C2S(=O)(=O)CC(C)C
Aminopeptidase N
  IC50: 29.5 µM (active)
[2]
  IC50: 12.3 µM (not active)
[3]
  IC50: > 50 µM (not active)
[13]
  IC50: > 20 µM (inactive)
[14]
  AC50: > 100 µM (inactive)
[15]
  IC50: 9.51 µM (active)
[16]
  EC50: > 53 µM (inactive)

## COc1ccc(-c2oc3cc(OC)c(OC(C)=O)c(OC)c3c(=O)c2OC)cc1OC(C)=O
Cytochrome P450 2C9
  AC50: 31.6 µM (inconclusive)

## CCC(=O)N1CCN(c2ccccc2NC(=O)Cc2ccccc2)CC1
[1]
  EC50: 12.9 µM (active)
